Test results reported in article PMC8808171, “Nonselective TRPC channel inhibition and suppression of aminoglycoside-induced premature termination codon readthrough by the small molecule AC1903” (The Journal of Biological Chemistry, 2022).

Experiments:
[1] = tested on: WT HEK 293 cells; experiment: Carbachol-mediated [Ca2+]i response in WT HEK 293 cells; format: cell-based; conditions: carbachol (100 μM), n/N = 1/6
Description: To test the effect of AC1903 on TRPC4 channels, we initially attempted to use carbachol to activate TRPC4:C4 channels, in line with patch-clamp experiments reported by Zhou et al. ([29]). […] Therefore, we used the selective TRPC1/4/5 activator EA and the physiological TRPC4/5 activator S1P instead.
[Ca^2+]i recordings were carried out using the ratiometric Ca^2+ dye Fura-2. 24 h prior to experiments, cells were plated either onto black, clear bottom poly-D-lysine-coated 96-well plates (HEK cells) or clear 96-well plates (A498 cells, CHO cells) at 50,000 cells per well (HEK cells) or 20,000 cells per well (A498 cells, CHO cells). For tetracycline-inducible HEK T-REx cells, protein expression was induced with tetracycline (TRPC channels: 1 μg ml^−1; hPiezo1: 100 ng ml^−1) at this point. To load cells with the Fura-2 dye, media was removed and cells were incubated with standard bath solution (SBS) containing 2 μM Fura-2 acetoxymethyl ester (Fura-2 AM; Thermo Fisher Scientific) and 0.01% pluronic acid for 1 h at 37 °C. SBS contained (in mM): NaCl 130, KCl 5, glucose 8, HEPES 10, MgCl2 1.2 and CaCl2 1.5. After this incubation, cells were washed twice with fresh SBS. […]
Inhibition of G418-induced premature stop codon readthrough
Figure S7. […] Responses were calculated at 70-80 s compared to [Ca2+]i at baseline (0-55 s). […]

[2] = tested on: DMS-114 cells; experiment: Measurement of intracellular G418 (gentamicin ELISA) in DMS-114 cells; format: cell-based, human; conditions: 150 μM AC1903 (Fig. 2D)
Description: Figure 2 Effect of AC1903 on PTC readthrough and G418 trafficking.A and B, DMS-114 (A) or TC-71 (B) cells were pretreated with indicated concentrations of AC1903 for 3 h followed by exposure to 400 μg/ml G418. After 3 h medium was replenished and at 24 h cell lysates were prepared and p53 levels were measured. C and E, DMS-114 (C) or JEB01 (E) cells were either left untreated or pretreated with 150 μM AC1903 for 3 h followed by exposure to indicated concentrations of G418 for another 3 h. At 24 h cell lysates were prepared and p53 (C) or Collagen XVII (E) levels were measured. In panels A–C, protein levels were measured by automated capillary electrophoresis Western analysis (using vinculin as loading control). In panel E, protein levels were measured by Western blot (using beta-actin as loading control). […] D, total intracellular levels of G418 were measured in the same lysates as in (C) (n = 5; data normalized to the highest response in each experiment; bars represent mean ± SD). F, total intracellular levels of G418 were measured in the same lysates as in (E) (n = 2; data normalized to the highest response in each experiment; bars represent mean ± SD). ∗ indicates statistically significant difference between samples according to one-way ANOVA (p < 0.05). […]

With `c1ccc(Cn2c(NCc3ccco3)nc3ccccc32)cc1` [AC1903] the IC50 [1] was 20 µM and the “intracellular G418 levels in the presence of AC1903” value [2] was “significantly decreased”.
